Assay results from article PMC8032764 (Scientific Reports, 2021).
Where two headings read alike, the source gives them in different places.

Experiments:
[1] = system: T1, Benzodiazepine (peripheral); test: Cerep binding; settings: 10 μM; [3H]PK 11195; rat heart
T1 construct: tissue Eurofins Cerep SA; host or cells: rat heart

[2] = system: T2, Vasoactive intestinal peptide VPAC1 (VIP1); test: Cerep binding; parameters: species or system human; settings: 10 μM; [125I]VIP; hum. recomb. (CHO)
T2 construct: host or cells: CHO

[3] = system: T3, Neuropeptide Y1; test: Cerep binding; parameters: species or system human; settings: 10 μM; [125I]peptide YY; hum., SK-N-MC cells
T3 construct: purchased Eurofins Cerep

[4] = system: T4, Serotonin 5-HT7; test: Cerep binding; parameters: species or system human; settings: 10 μM; [3H]LSD; hum. recomb. (CHO)
T4 construct: purchased Eurofins Cerep

[5] = system: T5, Serotonin 5-HT5a; test: Cerep binding; parameters: species or system human; settings: 10 μM; [3H]LSD; hum. recomb. (CHO)
T5 construct: purchased Eurofins Cerep

[6] = system: T6, Angiotensin AT2; test: Cerep binding; parameters: species or system human; settings: 10 μM; [125I]CGP 42112A; hum. recomb. (CHO)
T6 construct: purchased Eurofins Cerep

[7] = system: GABA (non-selective); test: Cerep binding; settings: 10 μM; [3H]GABA; rat cerebral cortex
[8] = system: T7, Serotonin 5-HT2B; test: Cerep binding; parameters: species or system human; settings: 10 μM; [125I](±)DOI; hum. recomb. (CHO)
T7 construct: purchased Eurofins Cerep

[9] = system: T8, Galanin 2; test: Cerep binding; parameters: species or system human; settings: 10 μM; [125I]galanin; hum. recomb. (CHO)
T8 construct: purchased Eurofins Cerep

[10] = system: T9, Dopamine D2S; test: Cerep binding; parameters: species or system human; settings: 10 μM; [3H]spiperone; hum. recomb. (HEK-293)
T9 construct: host or cells: HEK-293

[11] = target: T10, GABAA-α5 receptors (Rattus norvegicus, UniProt P18508+P19969); test: In vivo [3H]-Ro 15-4513 binding with ex vivo autoradiography (receptor occupancy); settings: hippocampus, Hill fit
T10 construct: from tissue; host or cells: rat brain (hippocampus), in vivo with ex vivo autoradiography
Procedure: Brains and blood were collected from each animal. Brains were divided in two halves along their sagittal axis and frozen in dry ice. […] Half of the brain was used for autoradiography, as described earlier. […] The percentage of receptor occupancy (y) was calculated from: y=1001-Sbasmisanil/Svehicle.
The curve was fitted to the experimental results using the Hill equation (Eq. (1) with Hill coefficient D = 1).

[12] = target: T11, human GABAA α2β3γ2 receptors (Homo sapiens, UniProt P18507+P47869); test: [3H]-flumazenil competition binding, HEK293 membranes; settings: 1 nM [3H]-flumazenil
T11 construct: expressed in transfected cells; host or cells: HEK293-EBNA, transient
Procedure: (§1) HEK293-EBNA cells adapted to grow in suspension were transiently transfected with the plasmids containing the desired GABAA receptor subunit cDNAs at α, β, γ, 1:1:2 ratio using XtremeGENE Q2 (Cat. No. 03045595001, Roche Applied Science, RAS, Rotkreuz, Switzerland) as previously described. GABAA α1β2γ2, α2β3γ2, α3β3γ2, α4β3γ2, α5β3γ2 and α6β3γ2 receptor subtypes were expressed in this system. 48 h post transfection, the cells were harvested and washed three times with cold PBS and frozen at − 80 °C.
(§2) Non-specific binding was determined in the presence of 10 μM diazepam.

[13] = target: T12, human GABAA α3β3γ2 receptors (Homo sapiens, UniProt P18507+P34903); test: as above; settings: 1 nM [3H]-flumazenil
T12 construct: expressed in transfected cells; host or cells: HEK293-EBNA, transient
Procedure: as §1, §2

[14] = system: T13, Neurokinin NK3; test: Cerep binding; parameters: species or system human; settings: 10 μM; [3H]SR 142801; hum. recomb. (CHO)
T13 construct: purchased Eurofins Cerep

[15] = system: T14, Dopamine D3; test: Cerep binding; parameters: species or system human; settings: 10 μM; [3H]spiperone; hum. recomb. (CHO)
T14 construct: host or cells: CHO

[16] = system: T15, Histamine H2; test: Cerep binding; parameters: species or system human; settings: 10 μM; [125I]APT; hum. recomb. (CHO)
T15 construct: host or cells: CHO

[17] = system: T16, Endothelin ETA; test: Cerep binding; parameters: species or system human; settings: 10 μM; [125I]endothelin-1; hum. recomb. (CHO)
T16 construct: purchased Eurofins Cerep

[18] = system: T17, Opioid μ; test: Cerep binding; parameters: species or system human; settings: 10 μM; [3H]DAMGO; hum. recomb. (HEK-293)
T17 construct: host or cells: HEK-293

[19] = system: T18, Chemokine CXCR2 (IL-8B); test: Cerep binding; parameters: species or system human; settings: 10 μM; [125I]IL-8; hum. recomb. (HEK-293)
T18 construct: purchased Eurofins Cerep

[20] = system: healthy male and female volunteers; test: Study WP29402 drug-drug interaction with itraconazole; format: in vivo, human
Text: 3) Study WP29402 Drug-Drug Interaction (DDI) Itraconazole in Healthy Volunteers This was an open-label, three treatment, fixed sequence crossover study to investigate the […]
healthy male and female volunteers (age range 18-60 years; n: 12). As systemic basmisanil exposure was predicted to be higher than exposures achiev ed in previous clinical studies, regular EEG examinations were included and reviewed by a neurologist. Multiple oral doses […]
with the CYP3A inhibitor, itraconazole (200 m g OD).
Baseline EEG assessments were performed prior to the study (resting EEG eyes open/closed, intermittent photic stimulation, hyperventilation). On treatment days (1, 3, 5, 8) […]
hours and resting EEG eyes open/closed w ere performed. […]
administered with itraconazole.

[21] = system: non-impaired rodents; test: Cognitive performance in non-impaired rodents; format: in vivo; settings: data not shown
[22] = Pharmacokinetics, single oral dosing; format: in vivo, Cynomolgus macaque; settings: cynomolgus monkey, plasma, 10 mg/kg oral, microsuspension, n = 3 male
Procedure: Concentrations were chosen to achieve the desired doses by administering 5 mL/kg to rats and 2.5 mL/kg to NHPs via oral gavage.
The calibration range was from 1.0 to 5000 ng/mL. After protein precipitation with ethanol, the sample solution was injected onto a Gemini C18 trapping column (2 × 10 mm; Phenomenex, Torrance, CA, USA) and polar endogenous compounds and salts were rinsed off. Analytical separation was performed on an Atlantis T3 column (2.1 × 50 mm) (Waters, Milford, MA, USA), using methanol/water containing 0.1% formic acid as mobile phase. A drug analogue was used as an internal standard.

[23] = 240 mg BID with itraconazole 200 mg OD versus alone

For `Cc1onc(-c2ccc(F)cc2)c1COc1ccc(C(=O)N2CCS(=O)(=O)CC2)cn1` [basmisanil], the “% Inhibition” value [1] was -10%, the “% Inhibition” value [2] was 0% and the “% Inhibition” value [3] was 0%. The “% Inhibition” value [4] was 13%, the “% Inhibition” value [5] was 5% and the “% Inhibition” value [6] was -3%. The “% Inhibition” value [7] was -1%, the “% Inhibition” value [8] was 31% and the “% Inhibition” value [9] was -1%. The “% Inhibition” value [10] was 9%, the EC50 ([11]; free plasma, read-out: free plasma concentration for half-maximal receptor occupancy (EC50)) was 171 ± 16 nM and the EC50 ([11]; total plasma, read-out: plasma level for half-maximal receptor occupancy (EC50) (converted)) was 1220 nM. The Ki [12] was 458 ± 27 nM, the Ki [13] was 510 ± 21 nM and the “% Inhibition” value [14] was -9%. The “% Inhibition” value [15] was 3%, the “% Inhibition” value [16] was 8% and the “% Inhibition” value [17] was 8%. For the same compound, the “% Inhibition” value [18] was 3%, the “% Inhibition” value [19] was -3% and the maximum plasma concentration ([20]; 240 mg BID alone) was 3510 ng/mL. The maximum plasma concentration ([20]; 240 mg BID co-administered with itraconazole 200 mg OD) was 14500 ng/mL, the “increase in maximum plasma concentration” value [20, 23] was 312% and the “increase in systemic exposure at steady state” value [20, 23] was 374%. For the same compound, the maximum plasma concentration ([20]; DDI study, n = 12) was “approximately 14,500 ng/mL”, the EEG findings ([20]; co-administered with itraconazole) was “no epileptiform discharges” and the “enhancement of cognitive performance” value [21] was “have not shown enhancement of cognitive performance”. For the same compound, the bioavailability [22] was 48%, the Tmax ([22]; median, read-out: Tmax (range)) was 1.5 h and the AUC(0-t) ([22]; ± standard deviation) was 27500 ng·h/mL. For the same compound, the Cmax ([22]; ± standard deviation) was 3650 ± 110 ng/mL.
